{"source": "paper PMC7287799", "about": "(Molecules, 2020)", "origin": "cited, not measured here", "test_system": "E. coli IMPDH"}
{"smiles": "NC(=O)c1ncn([C@@H]2O[C@H](CO)[C@@H](O)[C@H]2O)c1O", "note": "[Mizoribine]", "values": [{"measurement": "Ki", "value": 500, "unit": "nM"}]}
